Among the data in PubChem BioAssay (NCI) are GI50 and TGI values, retold here.

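48-hour exposure; five concentrations; linearly interpolated endpoints. Here, GI50 denotes the concentration required for 50% inhibition of growth. TGI marks complete inhibition of growth.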

What all share (assay): NCI anticancer screen, dose series, 48 h
Test [1] has as its system OVCAR-8 ovarian.
Test [2] concerns SK-MEL-2 melanoma.
For test [3], the system named is OVCAR-4 ovarian.
Test [4] concerns MOLT-4 leukemia.
The subject of test [5] is UACC-62 melanoma.
Test [6] relates to MDA-MB-231 breast.
For test [7], the system named is HOP-62 NSCLC.
The subject of test [8] is HCT-116 colon.
Test [9] deals with TK-10 renal.
In test [10] the test system is HCC-2998 colon.

For the compound `O=C(NC(=S)NS(=O)(=O)c1ccc(N2N=C3c4ccccc4CC3C2c2cccs2)cc1)c1ccccc1` (centres undefined), the GI50 in test [1] is 20.3 µM; in test [2], 44 µM; in test [3], 87.6 µM; in test [4] it was 26.2 µM; in test [5], 14.6 µM; in test [6], 22.5 µM. In addition, the TGI in test [1] was over 100 µM; in test [2], over 100 µM; in test [3] it was over 100 µM; in test [4] it was 69.9 µM; in test [5], 36.8 µM; in test [6] it was 90.1 µM.
In the case of `CN(C)/[N+]([O-])=N/Oc1cc(Nc2ccc(C(=O)O)cc2)c([N+](=O)[O-])cc1[N+](=O)[O-]`, the GI50 in test [1] was 22.1 µM; in [2], 17.1 µM; in test [7], 18 µM; in test [4], 53.3 µM; in test [8] it was 20.9 µM; in test [9], 18.9 µM. For the same compound, the GI50 is 17.9 µM in test [5] and 17 µM in test [6]. The TGI in test [1] was 52.1 µM; in test [2] it was 39 µM; in test [7], 35 µM; in test [4] it was over 100 µM; in test [8] it was 41.6 µM; in [9] it was 72.7 µM. Moreover, the figures for the TGI in test [5] and in test [6] were 32.2 µM and 31.3 µM, respectively.
Regarding `CNCCNc1nc2ccccc2c2c(=O)c3cccc(OC)c3sc12`, the GI50 in test [10] was 1.55 µM; in test [1], 1.15 µM; in [2] it was 1.78 µM; in [3], 1.47 µM; in test [7], 1.25 µM; in test [4] it was 0.427 µM. Moreover, the GI50 in [8] is 0.547 µM; in [5] it was 1.57 µM; in test [6], 1.3 µM. In addition, the TGI in test [10] was 3.18 µM; in test [1], 2.8 µM; in [2], 3.62 µM; in [3], 3.16 µM; in test [7] it was 2.92 µM; in test [4] it was 1.63 µM. Moreover, the TGI in test [8] turned out to be 1.86 µM; in test [5] it was 2.97 µM; in test [6] it was 2.78 µM.
With `COc1ccc(C2CC(c3cc(OC)c(OC)c(OC)c3)=NN2)cc1` (centres undefined), the GI50 in [10] was 9.35 µM; in [1], 28.4 µM; in test [3] it was 12.8 µM; in test [7], 28.7 µM; in test [4] it was 4.76 µM; in test [8], 3.93 µM. In addition, the figures for the GI50 in [9], in test [5] and in test [6] were 42 µM, 7.63 µM and 22.5 µM, respectively. Also, the TGI in test [10] is 37.2 µM; in test [1], over 100 µM; in test [3], over 100 µM; in test [7], 99.2 µM; in [4], 25 µM; in [8] it was over 100 µM. Moreover, the TGI in [9], in [5] and in [6] was over 100 µM throughout.
With `CCN1C(=O)N(c2c(F)c(OC)cc(OC)c2F)Cc2cnc3[nH]c(CN4CCOCC4)cc3c21`, the GI50 in test [1] is 3.98 µM; in [2] it was 1.08 µM; in [3], 1.69 µM; in [7] it was 2.35 µM; in test [4] it was 2.56 µM; in test [8] it was 1.84 µM. The GI50 in [5] is 3.77 µM; in test [6], 3.06 µM. Further, the TGI in [1] was over 100 µM; in test [2] it was 41.8 µM; in test [3] it was over 100 µM; in test [7], over 100 µM; in test [4], 59.9 µM; in test [8], 19.4 µM. The TGI is 51.5 µM in test [5] and 39.3 µM in test [6].
With `COc1ccc(-n2c(N)c(C(=O)NCCN3CCOCC3)c3nc4ccccc4nc32)cc1OC`, the GI50 in test [10] was 94.3 µM; in test [1], 6.94 µM; in test [2], 2.94 µM; in test [3], 68.5 µM; in [4], 2.87 µM; in test [8] it was 3.49 µM. The GI50 in test [9] is 31.9 µM; in [5], 9.82 µM; in test [6], 32.4 µM. The TGI in test [10] was over 100 µM; in [1], over 100 µM; in test [2] it was 42.8 µM; in test [3], over 100 µM; in test [4], 27.4 µM; in test [8], over 100 µM. In addition, the TGI in test [9], in [5] and in [6] was over 100 µM in each case.
Regarding `CC(O)CN(CCN(CC(C)O)CC(C)O)CC(C)O.O=[N+]([O-])O.[Cu+2]` (centres undefined), the GI50 in test [1] is over 100 µM; in [2] it was over 100 µM; in test [3], 73.6 µM; in [7] it was over 100 µM; in test [4], over 100 µM; in [8], over 100 µM. Further, the GI50 in test [9], in test [5] and in test [6] was over 100 µM throughout. Moreover, the TGI in [1], in test [2], in [3], in test [7], in test [4] and in [8] was over 100 µM each time. Also, the TGI in [9], in test [5] and in [6] was over 100 µM in each case.
As for `NC(=O)NC(=O)CI`, the GI50 is 18.5 µM in test [10]; 3.23 µM in test [1]; 5.78 µM in test [2]; 1.77 µM in test [3]; 20.5 µM in [7]; 1.74 µM in test [4]. Also, the GI50 is 1.39 µM in [8], 5.38 µM in test [5] and 6.99 µM in test [6]. The TGI in [10] is 35.1 µM; in test [1], 11.9 µM; in test [2], 18.7 µM; in [3], 4.08 µM; in test [7], 43.1 µM; in test [4], 4.13 µM. Also, the figures for the TGI in test [8], in [5] and in [6] were 3.12 µM, 18.7 µM and 19.9 µM, respectively.
Turning to `N#C/C(=C/N1CCN(C(=O)c2ccco2)C1=S)C(N)=O`, the GI50 is 43.7 µM in test [1]; 24.4 µM in test [2]; 18.5 µM in [3]; 25.6 µM in [7]; 39.8 µM in test [4]; 21.2 µM in [8]. Besides, the GI50 in [9] is 12.1 µM; in [5] it was 14 µM; in [6], 13.1 µM. The TGI was over 100 µM in test [1]; 62.3 µM in test [2]; 73.8 µM in test [3]; 66.9 µM in [7]; over 100 µM in test [4]; 92.9 µM in [8]. In addition, the TGI in test [9] was determined as 53.6 µM; in test [5], 38.3 µM; in test [6], 37 µM.
Regarding `Cc1cc(S(N)(=O)=O)c(S/C(=N\NS(=O)(=O)c2ccc(Cl)cc2)c2ccc(Cl)cc2)cc1Cl`, the GI50 was over 100 µM in test [1]; over 100 µM in [2]; over 100 µM in [3]; over 100 µM in test [7]; 8.12 µM in [4]; over 100 µM in [8]. Also, the GI50 in test [9], in test [5] and in test [6] was over 100 µM in each case. For the same compound, the TGI in test [1], in [2], in test [3], in [7], in test [4] and in test [8] was over 100 µM in each case. For the same compound, the TGI in test [9], in test [5] and in test [6] was over 100 µM each time.
For `O=C(Nc1ccccc1Cl)c1ccc(NC2=C(Cl)C(=O)N(Cc3ccccc3)C2=O)cc1`, the GI50 in test [10] is 13.7 µM; in [1], 18.7 µM; in test [3], 78.9 µM; in [7], 41.2 µM; in [4] it was 19.1 µM; in test [8], 21.4 µM. Moreover, the GI50 in test [9] is 46.7 µM; in [5] it was 19.5 µM; in [6], 31.3 µM. The TGI was 26.6 µM in test [10]; 36.9 µM in test [1]; over 100 µM in [3]; over 100 µM in [7]; 50.8 µM in [4]; 47.5 µM in [8]. For the same compound, the TGI in test [9] was over 100 µM; in [5], 41.1 µM; in [6] it was 91.9 µM.
On to `NS(=O)(=O)c1ccc(-n2nc(-c3ccc(Cl)cc3)cc2C2=CC(=O)C=CC2=O)cc1`, for which the GI50 is 18.3 µM in test [10]; 24.2 µM in [1]; 58 µM in test [2]; over 100 µM in test [4]; 12.5 µM in test [9]; 14.2 µM in test [5]. Also, the GI50 in [6] is 13.7 µM. Besides, the TGI is 33 µM in test [10]; 73.7 µM in test [1]; over 100 µM in [2]; over 100 µM in [4]; 28.3 µM in test [9]; 34.1 µM in test [5]. This compound also had a TGI in [6] of 32 µM.
For `Cc1ccc(/C=C2\CCOC2=O)cc1`, the GI50 in test [1], in test [2], in test [3], in test [7], in test [4] and in [8] was over 100 µM throughout. Moreover, the GI50 in test [9], in [5] and in [6] was over 100 µM in each case. Also, the TGI in test [1], in test [2], in test [3], in test [7], in test [4] and in test [8] was over 100 µM throughout. Also, the TGI in [9], in test [5] and in test [6] was over 100 µM throughout.
`Cn1c2ccccc2c2c3c(c4c5ccccc5n(CCCCCC#N)c4c21)C(=O)N(O)C3=O`: the GI50 in test [10] is 2.57 µM; in [1], 0.759 µM; in [2], 1.54 µM; in test [3], 1.91 µM; in test [7] it was 0.42 µM; in test [8] it was 0.87 µM. Besides, the values for the GI50 in [9], in [5] and in [6] were 3.94 µM, 0.465 µM and 2.34 µM, respectively. In addition, the TGI turned out to be 38.5 µM in test [10]; 10.8 µM in [1]; 3.84 µM in test [2]; 9.33 µM in [3]; 5.65 µM in test [7]; 4.14 µM in test [8]. Further, the TGI in test [9] is 40 µM; in test [5], 2.03 µM; in [6] it was 7.92 µM.
With `COC(=O)c1oc2c(C(=O)/C=C/c3ccc(OC)cc3)c(OCCCN3CCCCC3)ccc2c1C`, the GI50 in [1] was 1.67 µM; in test [2] it was 1.87 µM; in test [3], 2.49 µM; in test [7], 1.67 µM; in test [4], 1.6 µM; in test [8] it was 1.24 µM. Besides, the GI50 in [9] was 2.04 µM; in test [5] it was 1.54 µM; in test [6] it was 1.69 µM. In addition, the TGI was 4.23 µM in [1]; 7.65 µM in [2]; 9.15 µM in test [3]; 3.48 µM in [7]; 4.97 µM in test [4]; 3.02 µM in test [8]. Further, the TGI worked out at 5.71 µM in [9], 3 µM in test [5] and 3.78 µM in test [6].
As for `COc1ccc(Cc2ccccc2C(=O)O)c2ccccc12`, the TGI is over 100 µM in [1]; 54.5 µM in [2]; over 100 µM in test [3]; over 100 µM in [7]; 47.3 µM in test [8]; 50.2 µM in test [9]. The TGI was 29.9 µM in test [5] and over 100 µM in [6].
On to `CC1=C(C(=O)Nc2ccc(F)c(Cl)c2)C(c2cccc(Cl)c2)NC(=O)N1` (centres undefined), for which the GI50 in [10] is 18.3 µM; in test [1], 17.5 µM; in test [2], 15.7 µM; in [7] it was 17.5 µM; in [8], 14.7 µM; in test [9] it was 15.8 µM. The GI50 in [5] was 13.2 µM; in test [6], 11.6 µM. In addition, the TGI in test [10] came out at 32.5 µM; in [1] it was 39.7 µM; in test [2], 30.5 µM; in [7], 35 µM; in test [8], 27.9 µM; in test [9], 41.6 µM. Also, the results for the TGI in [5] and in [6] were 26.7 µM and 25.1 µM, respectively.
Turning to `NCCOc1ccccn1`, the TGI in test [1], in [2], in test [3], in test [7], in test [4] and in test [8] was over 100 µM throughout. The TGI in [9], in [5] and in test [6] was over 100 µM in each case.
